# Assay results from PubChem BioAssay (NCI).
#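 Assay format: 96-well plates, 48-hour exposure. GI50 marks 50% less growth. TGI: concentration producing complete growth inhibition.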
# Experiments:
# Experiment in all cases: inhibition of tumour cell growth, NCI panel, 48 h
# SW-620 colon = system: SW-620 colon
# KM12 colon = system: KM12 colon
# PC-3 prostate = system: PC-3 prostate
# 786-0 renal = system: 786-0 renal
# NCI-H226 lung = system: NCI-H226 lung
# UACC-257 melanoma = system: UACC-257 melanoma
# MOLT-4 leukemia = system: MOLT-4 leukemia
# UACC-62 melanoma = system: UACC-62 melanoma
# HCT-116 colon = system: HCT-116 colon
# ACHN renal = system: ACHN renal
# SR leukemia = system: SR leukemia
# NCI-H23 lung = system: NCI-H23 lung
# HS 578T breast = system: HS 578T breast
# HOP-92 NSCLC = system: HOP-92 NSCLC
# HCT-15 colon = system: HCT-15 colon
# MALME-3M melanoma = system: MALME-3M melanoma
# HT29 colon = system: HT29 colon
# DU-145 prostate = system: DU-145 prostate
# SK-OV-3 ovarian = system: SK-OV-3 ovarian
# OVCAR-5 ovarian = system: OVCAR-5 ovarian
# M14 melanoma = system: M14 melanoma
# U251 CNS = system: U251 CNS
# MDA-MB-435 = system: MDA-MB-435
# CAKI-1 renal = system: CAKI-1 renal
# LOX IMVI melanoma = system: LOX IMVI melanoma
# UO-31 renal = system: UO-31 renal
# RPMI-8226 leukemia = system: RPMI-8226 leukemia
# IGROV1 ovarian = system: IGROV1 ovarian
# COLO 205 colon = system: COLO 205 colon
# HCC-2998 colon = system: HCC-2998 colon
# SF-295 CNS = system: SF-295 CNS
# NCI-H522 lung = system: NCI-H522 lung
# BT-549 breast = system: BT-549 breast
# A498 renal = system: A498 renal
# SNB-75 CNS = system: SNB-75 CNS
# OVCAR-8 ovarian = system: OVCAR-8 ovarian
# EKVX NSCLC = system: EKVX NSCLC
# HL-60(TB) leukemia = system: HL-60(TB) leukemia
# SN12C renal = system: SN12C renal
# TK-10 renal = system: TK-10 renal
# OVCAR-3 ovarian = system: OVCAR-3 ovarian
# SF-539 CNS = system: SF-539 CNS
# MCF7 breast = system: MCF7 breast
# A549 NSCLC = system: A549 NSCLC
# OVCAR-4 ovarian = system: OVCAR-4 ovarian
# HOP-62 NSCLC = system: HOP-62 NSCLC
# SK-MEL-28 melanoma = system: SK-MEL-28 melanoma
# MDA-MB-231 breast = system: MDA-MB-231 breast
# SNB-19 CNS = system: SNB-19 CNS
# T-47D breast = system: T-47D breast
# RXF 393 renal = system: RXF 393 renal
# CCRF-CEM leukemia = system: CCRF-CEM leukemia
# SF-268 CNS = system: SF-268 CNS
# NCI/ADR-RES ovarian = system: NCI/ADR-RES ovarian
# NCI-H460 lung = system: NCI-H460 lung
# SK-MEL-2 melanoma = system: SK-MEL-2 melanoma
compound,measurement,setting,value
COc1ccc(/C=C/C(=O)c2ccc(Nc3ncnc4ccccc34)cc2)cc1OC,GI50,SW-620 colon,3.51 µM
same,TGI,SW-620 colon,> 100 µM
same,GI50,KM12 colon,3.45 µM
same,TGI,KM12 colon,> 100 µM
same,GI50,PC-3 prostate,4.22 µM
same,TGI,PC-3 prostate,> 100 µM
same,GI50,786-0 renal,7.96 µM
same,TGI,786-0 renal,> 100 µM
same,GI50,NCI-H226 lung,3.53 µM
same,TGI,NCI-H226 lung,31.9 µM
same,GI50,UACC-257 melanoma,20.3 µM
same,TGI,UACC-257 melanoma,> 100 µM
same,GI50,MOLT-4 leukemia,5.68 µM
same,TGI,MOLT-4 leukemia,23.5 µM
same,GI50,UACC-62 melanoma,10.7 µM
same,TGI,UACC-62 melanoma,27.9 µM
same,GI50,HCT-116 colon,0.547 µM
same,TGI,HCT-116 colon,16.8 µM
same,GI50,ACHN renal,13.6 µM
same,TGI,ACHN renal,> 100 µM
same,GI50,SR leukemia,2.04 µM
same,TGI,SR leukemia,6.36 µM
same,GI50,NCI-H23 lung,4.69 µM
same,TGI,NCI-H23 lung,> 100 µM
same,GI50,HS 578T breast,15.3 µM
same,TGI,HS 578T breast,> 100 µM
same,GI50,HOP-92 NSCLC,2.05 µM
same,TGI,HOP-92 NSCLC,52.7 µM
same,GI50,HCT-15 colon,8.63 µM
same,TGI,HCT-15 colon,> 100 µM
same,GI50,MALME-3M melanoma,13.8 µM
same,TGI,MALME-3M melanoma,> 100 µM
same,GI50,HT29 colon,3.21 µM
same,TGI,HT29 colon,12.1 µM
same,GI50,DU-145 prostate,8.16 µM
same,TGI,DU-145 prostate,> 100 µM
same,GI50,SK-OV-3 ovarian,4.23 µM
same,TGI,SK-OV-3 ovarian,35.5 µM
same,GI50,OVCAR-5 ovarian,39.6 µM
same,TGI,OVCAR-5 ovarian,> 100 µM
same,GI50,M14 melanoma,6.24 µM
same,TGI,M14 melanoma,> 100 µM
same,GI50,U251 CNS,3.66 µM
same,TGI,U251 CNS,> 100 µM
same,GI50,MDA-MB-435,2.93 µM
same,TGI,MDA-MB-435,> 100 µM
same,GI50,CAKI-1 renal,16.8 µM
same,TGI,CAKI-1 renal,> 100 µM
same,GI50,LOX IMVI melanoma,2.81 µM
same,TGI,LOX IMVI melanoma,10.4 µM
same,GI50,UO-31 renal,4.57 µM
same,TGI,UO-31 renal,68.3 µM
same,GI50,RPMI-8226 leukemia,0.365 µM
same,TGI,RPMI-8226 leukemia,1.66 µM
same,GI50,IGROV1 ovarian,20.7 µM
same,TGI,IGROV1 ovarian,> 100 µM
same,GI50,COLO 205 colon,14.8 µM
same,TGI,COLO 205 colon,> 100 µM
same,GI50,HCC-2998 colon,3.22 µM
same,TGI,HCC-2998 colon,11.8 µM
same,GI50,SF-295 CNS,6.25 µM
same,TGI,SF-295 CNS,> 100 µM
same,GI50,NCI-H522 lung,7.45 µM
same,TGI,NCI-H522 lung,33.5 µM
same,GI50,BT-549 breast,3.22 µM
same,TGI,BT-549 breast,32 µM
same,GI50,A498 renal,8.97 µM
same,TGI,A498 renal,> 100 µM
same,GI50,SNB-75 CNS,5.19 µM
same,TGI,SNB-75 CNS,48.3 µM
same,GI50,OVCAR-8 ovarian,7.03 µM
same,TGI,OVCAR-8 ovarian,57.2 µM
same,GI50,EKVX NSCLC,13.9 µM
same,TGI,EKVX NSCLC,> 100 µM
same,GI50,HL-60(TB) leukemia,20.7 µM
same,TGI,HL-60(TB) leukemia,> 100 µM
same,GI50,SN12C renal,10.9 µM
same,TGI,SN12C renal,> 100 µM
same,GI50,TK-10 renal,8.29 µM
same,TGI,TK-10 renal,62.9 µM
same,GI50,OVCAR-3 ovarian,5.1 µM
same,TGI,OVCAR-3 ovarian,> 100 µM
same,GI50,SF-539 CNS,7.73 µM
same,TGI,SF-539 CNS,48.8 µM
same,GI50,MCF7 breast,2.43 µM
same,TGI,MCF7 breast,14.3 µM
same,GI50,A549 NSCLC,3.66 µM
same,TGI,A549 NSCLC,> 100 µM
same,GI50,OVCAR-4 ovarian,3.26 µM
same,TGI,OVCAR-4 ovarian,27 µM
same,GI50,HOP-62 NSCLC,9.87 µM
same,TGI,HOP-62 NSCLC,66.5 µM
same,GI50,SK-MEL-28 melanoma,13.7 µM
same,TGI,SK-MEL-28 melanoma,93.5 µM
same,GI50,MDA-MB-231 breast,19.8 µM
same,TGI,MDA-MB-231 breast,> 100 µM
same,GI50,SNB-19 CNS,11.5 µM
same,TGI,SNB-19 CNS,> 100 µM
same,GI50,T-47D breast,3.61 µM
same,TGI,T-47D breast,25.2 µM
same,GI50,RXF 393 renal,2.2 µM
same,TGI,RXF 393 renal,9.96 µM
same,GI50,CCRF-CEM leukemia,2.55 µM
same,TGI,CCRF-CEM leukemia,7.01 µM
same,GI50,SF-268 CNS,6.55 µM
same,TGI,SF-268 CNS,> 100 µM
same,GI50,NCI/ADR-RES ovarian,3.82 µM
same,TGI,NCI/ADR-RES ovarian,> 100 µM
same,GI50,NCI-H460 lung,13 µM
same,TGI,NCI-H460 lung,> 100 µM
same,GI50,SK-MEL-2 melanoma,13.9 µM
same,TGI,SK-MEL-2 melanoma,44.8 µM
